Columns and labels:
[1] = molecular target: T1, LAT-1 (Homo sapiens, UniProt Q01650); assay: Uptake competition assay with phenylalanine in FaDu cells; assay type: cell-based; parameters: endogenous in cells; host or cells: FaDu; conditions: 0.5 mM compound, Phe 0.01 to 20 mM, compared to BTS(OMe) or BPA
Experimental: To determine the ability for BTS and BTS(OMe) to mediate LAT-1, the following experiments were performed using the following protocols. Briefly, FaDu cells (2 million) were incubated in HBSS medium for two (2) hrs. at 37° C. with 0.5 mM of either (i) BTS, (ii) BTS(OMe), or (iii) BPA-fructose in the absence (19A) or presence of increasing concentrations of LAT-1 specific inhibitor JPH203-dichloride, (19A) or phenylalanine, a competitor (19B). Following incubation, the cells were harvested and washed with cold PBS. The amount of each compound that was taken up by the cells was determined by ICP OES. The IC50 determination was made by a three (3) parameter inhibitor non-linear regression fit using Prism (Graph Pad) software.
In the competition assay, increased concentration of Phe in the range of 0.01 to 20 mM was used. […] (FIG. 19).
Target sequence in this assay (Q01650 whole entry): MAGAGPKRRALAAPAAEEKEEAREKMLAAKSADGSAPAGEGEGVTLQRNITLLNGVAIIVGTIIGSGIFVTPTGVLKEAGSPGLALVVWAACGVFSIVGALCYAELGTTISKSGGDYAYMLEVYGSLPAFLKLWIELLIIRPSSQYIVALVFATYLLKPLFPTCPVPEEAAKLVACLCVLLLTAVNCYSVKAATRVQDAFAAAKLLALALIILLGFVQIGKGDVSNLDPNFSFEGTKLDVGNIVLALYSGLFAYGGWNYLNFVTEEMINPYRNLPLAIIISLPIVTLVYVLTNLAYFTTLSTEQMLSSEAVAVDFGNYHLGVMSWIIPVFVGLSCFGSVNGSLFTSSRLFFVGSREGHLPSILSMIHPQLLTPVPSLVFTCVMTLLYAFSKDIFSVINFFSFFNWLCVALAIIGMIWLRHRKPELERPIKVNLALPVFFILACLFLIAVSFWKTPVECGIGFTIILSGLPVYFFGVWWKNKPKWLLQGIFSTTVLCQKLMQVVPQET
Target sequence in this assay (P08195 102-630 partner): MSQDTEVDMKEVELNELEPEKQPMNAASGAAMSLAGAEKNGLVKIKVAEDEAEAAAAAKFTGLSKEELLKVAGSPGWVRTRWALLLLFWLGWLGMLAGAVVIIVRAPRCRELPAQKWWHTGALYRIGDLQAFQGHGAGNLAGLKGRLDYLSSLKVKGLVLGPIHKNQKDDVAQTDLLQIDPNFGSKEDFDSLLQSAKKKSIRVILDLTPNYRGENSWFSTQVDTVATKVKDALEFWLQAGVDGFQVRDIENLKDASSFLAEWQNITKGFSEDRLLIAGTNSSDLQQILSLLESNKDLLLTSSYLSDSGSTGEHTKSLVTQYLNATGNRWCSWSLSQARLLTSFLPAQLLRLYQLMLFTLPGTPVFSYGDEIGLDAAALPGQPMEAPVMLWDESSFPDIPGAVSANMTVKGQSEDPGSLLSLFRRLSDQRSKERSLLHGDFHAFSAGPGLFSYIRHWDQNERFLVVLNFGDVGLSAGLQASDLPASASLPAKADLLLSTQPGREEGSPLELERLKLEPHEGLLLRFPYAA

[2] = system: CT26 cells; assay: Boron uptake in CT26 cells in vitro (ICP-OES); assay type: cell-based, mouse; conditions: CT26 cell line, single experiment
Source text: As a result, it accumulates boron compounds at significant levels. Additionally, FaDu also grows well as an established xenograft model in SCID mice. This disclosure endeavored to determine whether a mouse-derived cancer cell line, CT-26, is suitable for BNCT experiments. By way of background, CT26 is a syngeneic model, it can be implanted and established in wild-type BalbC mice and provides a convenient and low-cost model.
Briefly, CT26 cells were harvested and washed with PBS two (2) times, and the count was adjusted 2 million/ml in HBSS media Boron compounds were then added to cells at the final concentration of 2.5 mM in HBSS and the cells were incubated at 37° C. in a humidified 5% CO2 atmosphere for 2.0 hrs. with shaking. Following a two (2) hr. incubation, cells were harvested and washed two times with ice cold PBS. Cells were suspended in 1 ml ice cold PBS and a portion (50 NI) was lysed in RIPA buffer and protein content was determined by BCA assay.
The remaining portion (950 NI) was subjected to nitric acid lysis (66.7% acid at 80° C.) and boron measurements were carried out using ICP-OES.
Low expression of LAT-1 in CT26 estimated by Western blot is consistent with the overall reduced boron uptake. Each bar represents three (3) independent experiments performed on different days (FaDu) or a single experiment (CT-26) Error bars represent 1 standard deviation. […]

[3] = system: FaDu, A375, SCC-25, A253, and Detroit 562; assay: BTS uptake across head and neck cancer and melanoma cell lines; assay type: cell-based, human; conditions: 2 hours treatment, each of the five cell lines
Experimental: To evaluate the uptake of BTS in multiple head and neck cancer cell lines as well as melanoma cell lines the following experiments were performed using the following protocols.
Briefly, five (5) human-derived cell lines (FaDu, A375, SCC-25, A253, and Detroit 562), all representing cancer indications relevant to BNCT treatment, were cultured, and treated with either BPA-fructose (the standard of care) or with BTS for two (2) hours. The cells were then washed to remove the compounds, harvested, and treated as per the protocol described above. Boron uptake was reported as μg boron per mg of cellular protein as determined by ICP OES and by the BCA assay, respectively.

[4] = Pharmacokinetics in non-tumor-bearing Balb/C mice (blood boron by ICP OES); assay type: in vivo; conditions: for CL / Vss: i.v. tail vein, Balb/C male mice, blood boron
Experimental: To determine the pharmacokinetics of BTS versus BPA (BPA-fructose) in blood, the following experiments were performed using the following protocols and under the parameters set forth in Table II. Briefly, […] of each compound ([…] and BPA-fructose) was injected into the tail vein of Balb/C non-tumor bearing male mice (5 mice per group). Blood was drawn at the following time points: 2, 5, 16, 30, 60, 120 and 240 min into EDTA-coated tubes. Boron concentration was measured using ICP OES following the digestion in concentrated nitric acid for one (1) hr. The boron concentration was normalized to 1 mL of blood and plotted using GraphPad Prizm. The PK parameters (see 20(B)) were obtain using PK Solver version 2.0 using compartmental analysis. BPA-fructose was used as a reference substance.

[5] = Solubility in water; assay type: physicochemical
Experimental: To determine the solubility and impurity profiles of BTS and BTS(OMe) in solution, the following experiments were performed using the following protocols. Briefly, BTS test article preparation(s) were prepared by dissolving in water and adjusting pH to 7-7.5 by NaOH.
BTS(OMe) test article preparation(s) were prepared by dissolving in water and gradually raising pH by adding NaOH until all the crystals are solubilized. The pH at that point is approximately 9.5-10. Fructose is then added at the ratio of 1.1 mol/mol BTS(OMe). The pH is adjusted to 7-7.5 using concentrated HCl.
Both solutions were adjusted to 100 mg/mL and 0.2 μm filtered. The actual concentrations are confirmed by ICP OES.

[6] = system: FaDu cells; assay: Boron uptake in FaDu cells in vitro (ICP-OES); assay type: cell-based, human; conditions: for intracellular boron concentration: equimolar 2.5 mM compound in HBSS, 2 hr, 37° C., ICP-OES
[7] = system: subcutaneous FaDu tumors; assay: Time-course biodistribution and tumor to blood ratio in mice bearing subcutaneous FaDu tumors; assay type: in vivo; conditions: 400 mg/kg bolus i.v.
Experimental: To determine the biodistribution of BTS and BTS(OMe) and the tumor to blood ration, the following experiments were performed using the following protocols. Briefly, all compounds tested, with the exception of BPA, were prepared as 100 mg/mL stocks. BPA was prepared as a fructose solution at 25 mg/ml. The concentrations were confirmed by ICP OES prior to the study. The blood and tissues (tumor, kidney, and pancreas) were harvested at the times indicated, weighed, and placed inside the Teflon containers and digested using a CEM microwave oven. The digested tissues were analyzed by ICP OES to determine the boron concentration.
All animal studies were carried out following the “Guide for the care and use the laboratory animals,” Eighth Edition and Animal Welfare Act (USDA). Briefly, human hypopharyngeal squamous cell carcinoma FaDu cells were maintained in DMEM, supplemented with L-glutamine and 10% FBS. Subcutaneous (s.c.) tumors were generated by injection of 2.5×10^6 cancer cells mixed at a 1:1 dilution with Matrigel (Corning Life Sciences) in the right flank of female CB17 SCID mice. Tumor sizes were determined by caliper measurements, and the tumor volume was calculated as width^2×Length/2, wherein width is the smallest dimension and length is the largest dimension. Tumors were allowed to grow untreated until they reached an approximate volume of 300 mm^3. At that point, animals were randomized and allocated to each treatment group based on tumor volume at the time of treatment initiation to ensure similar mean tumor size and variation in each group.
Each group received a single dose of BPA at […] or a test article at either 400 mg/kg or […] via intravenous tail vein injection. […] Two (2) hrs. post dose, blood was collected from each mouse from the submandibular vein into K2 EDTA coated tubes. Tumor and organs were collected for boron analysis.
In order to determine the biodistribution of BTS and BTS(OMe) in FaDu-tumor bearing mice and determine the most appropriate time to harvest the tumor and organs of interest during the subsequent dose-escalation studies, 400 mg/kg doses of both molecules were administered as a bolus i.v. injection. BPA-fructose was administered at a dose of […] due to its solubility constraints and the requirements for the maximum i.v. volume allowed. The boron compound accumulation in blood/organs was determined by ICP OES and expressed as μg boron per gram of tissue.

[8] = system: FaDu, Detroit 562, MeWo, A549, HCC-1954 xenografts; assay: Boron uptake across panel of established tumor xenografts; assay type: in vivo; conditions: BTS or BTS(OMe) 800 mg/kg vs BPA 200 mg/kg, 2 hours post-injection, SCID CB-17 mice
Source text: In a further experiment, to ascertain whether BTS and BTS(OMe) are taken up to a relatively higher degree across cancer multiple cell lines which results in a higher boron concentration, the following protocol was used. Briefly, a panel of five (5) human cancer cell lines derived from multiple indications that would be considered for treatment using BNCT were used. Specifically, the panel consisted of Head and Neck Carcinomas (FaDu and Detroit 562), melanoma (MeWo), non-small cancer lung carcinoma (A549), and breast carcinoma (HCC-1954).
Using standard methods, subcutaneously implanted established mouse xenografts were grown in SCID CB-17 mice. The treatment began when the tumors reached 150-200 mm^3 as follows: the BTS or BTS(OMe) arms received 800 mg/kg and the control BPA arm received 200 mg/kg. The animals were euthanized at two (2) hours post-injection. The tumors were harvested, weighed, and digested using the standard methods. The concentration of boron was measured by ICP OES and plotted as microgram per gram tissue. […] However, the absolute uptake varied between the cell lines with the overall lowest uptake observed in the Detroit 562 tumors.

[9] = system: F98 and C6 rat glioma cell lines; assay: BTS uptake using rat glioma cell lines; assay type: cell-based; conditions: 2 hr, F98 and C6 cells
Source text: Rat glioma cell lines were extensively used as orthotopic cancer models to conduct reactor based BNCT studies using either innovative boron carriers or a myriad of ways to enhance the uptake of BPA, including convection enhanced delivery of boronoporphyrins (Yang, et al., doi:10.1016/j.apradiso.2014.01.002), or pre-treatment of tumors with L-DOPA (Barth, et al., J Neurooncol. 2009; 94:299-312).
In this experiment, used cultured cell lines to confirm that BTS can be used for efficient boron delivery into both F98 and C6 rat glioma cell lines. […] This compound is expected to cross BBB and will be relevant for BNCT of brain tumors.

[10] = Cellular retention of boron after removal of boron source from the media; assay type: cell-based
[11] = molecular target: T1, LAT-1; assay: Boron accumulation in presence of LAT-1 inhibitors (unpublished); assay type: cell-based; conditions: unpublished earlier work of the applicant
Target sequence in this assay (Q01650 whole entry, species assumed): as the sequence (Q01650 whole entry) above
Target sequence in this assay (P08195 102-630 partner, species assumed): as the sequence (P08195 102-630 partner) above

[12] = system: subcutaneous FaDu; assay: Dose titration, biodistribution and boron uptake using subcutaneous FaDu xenografts; assay type: in vivo, mice; conditions: 2 hr post injection
Experimental: To determine the biodistribution and boron uptake of BTS and BTS(OMe) in vivo, the following experiments were performed using the following protocols. Briefly, to evaluate the effect of increased dose level using bolus i.v. injection on the accumulation of boron in the tumor, SCID mice carrying subcutaneous FaDu were dosed with BTS and BTS(OMe) at the levels ranging from 400 to 1000 mg/kg.
The tumor and selected organs were harvested at two (2) hr. post injection and processed for ICP OES.

SMILES | CL [4] | Vss [4] | solubility in water [5] | intracellular boron concentration [6] | amount of boron in tumors across xenograft panel [8] | effect of LAT-1 inhibitor on boron accumulation of borylated tyrosine analogs [11] | other results
N[C@@H](Cc1ccc(O)c(B(O)O)c1)C(=O)O [BTS] | 0.000304 mg/(μg/mL)/min | 0.0252 mg/µg/mL | very soluble in water | 1700 ± 133 µg/g | highest |  | IC50 of phenylalanine competition of compound uptake [1]: higher IC50; amount of compound internalized in CT26 less than in FaDu [2]: more pronounced; boron uptake compared to BPA-fructose [3]: superior uptake; pharmacokinetic profile ([4]; saline formulation, i.v.): bi-phasic pharmacokinetics; intracellular boron concentration higher compared to BPA-fructose ([6]; equimolar concentrations): 60%; uptake in murine pancreas [7]: exceedingly high uptake; increase of tumor to blood ratio between 30 and 60 min ([7]; FaDu xenografts): more than two-fold; decline of boron in the kidney ([7]; from initial time point of 5 min): considerably slower; boron concentration achieved, BTS compared to BPA-fructose [9]: > 2 fold
N[C@@H](Cc1ccc(B(O)O)cc1)C(=O)O [BPA, 4-Borono-L-phenylalanine, reference compound] | 0.00011 mg/(μg/mL)/min | 0.0289 mg/µg/mL |  | 1097 ± 59 µg/g |  |  | intracellular boron once boron source is removed and replaced with fresh medium (cellular retention) [10]: decreases sharply
Nc1cc(COc2c(Cl)cc(C[C@H](N)C(=O)O)cc2Cl)c2oc(-c3ccccc3)nc2c1 [JPH203] |  |  |  |  |  | diminished boron accumulations in a concentration-dependent fashion | 
NC1(C(=O)O)CC2CCC1C2 (stereo not shown) [BCH, 2-aminobicyclo-(2,2,1)-heptane-2-carboxylic acid] |  |  |  |  |  | diminished boron accumulations in a concentration-dependent fashion | 
COc1ccc(C[C@H](N)C(=O)O)cc1B(O)O [BTS(OMe)] |  |  | very soluble in water | 1005 ± 113 µg/g | highest |  | accumulation in kidney or pancreas [12]: does not accumulate; biodistribution compared to BPA ([7]; BPA-fructose 200): remarkably similar in its biodistribution to BPA
